Values joined by “and” are separate entries in the source; they are usually repeats but may differ in a detail not shown here. Identical values can stand only once. Inconclusive results and toxic doses are left out.
Test system: P388 leukemia ip, CD2F1 mice, survival T/C
Test: NCI In Vivo Anticancer Drug Screen. Data for tumor model P388 Leukemia (intraperitoneal) in CD2F1 (CDF1) mice
Settings: endpoint: median survival time, higher = longer survival
Outline: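 Mice carrying the transplanted tumor received test compound or vehicle. Survival was recorded in each group, and the value is the treated-group measurement divided by that of the vehicle-treated control group.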

[1] = dose: 50.0 mg/kg/injection, schedule: Q01DX005 (ip), vehicle: saline
[2] = dose: 100.0 mg/kg/injection, schedule: Q01DX005 (ip), vehicle: saline
[3] = dose: 200.0 mg/kg/injection, schedule: Q01DX005 (ip), vehicle: saline
[4] = dose: 25.0 mg/kg/injection, schedule: Q01DX005 (ip), vehicle: saline with Tween-80
[5] = dose: 50.0 mg/kg/injection, schedule: Q01DX005 (ip), vehicle: saline with Tween-80
[6] = dose: 100.0 mg/kg/injection, schedule: Q01DX005 (ip), vehicle: saline with Tween-80
[7] = dose: 50.0 mg/kg/injection, schedule: Q01DX005 (ip), vehicle: Klucel (hydroxypropylcellulose) (HPC)
[8] = dose: 100.0 mg/kg/injection, schedule: Q01DX005 (ip), vehicle: Klucel (hydroxypropylcellulose) (HPC)
[9] = dose: 200.0 mg/kg/injection, schedule: Q01DX005 (ip), vehicle: Klucel (hydroxypropylcellulose) (HPC)
[10] = dose: 25.0 mg/kg/injection, schedule: Q01DX009 (ip), vehicle: saline with Tween-80
[11] = dose: 50.0 mg/kg/injection, schedule: Q01DX009 (ip), vehicle: saline with Tween-80
[12] = dose: 100.0 mg/kg/injection, schedule: Q01DX009 (ip), vehicle: saline with Tween-80
[13] = dose: 200.0 mg/kg/injection, schedule: Q01DX009 (ip), vehicle: saline with Tween-80
[14] = dose: 50.0 mg/kg/injection, schedule: Q01DX009 (ip), vehicle: saline
[15] = dose: 100.0 mg/kg/injection, schedule: Q01DX009 (ip), vehicle: saline
[16] = dose: 200.0 mg/kg/injection, schedule: Q01DX005 (ip), vehicle: saline with Tween-80

## COc1cccc2c1C(=O)c1c(O)c3c(c(O)c1C2=O)C[C@@](O)(C(C)O)C[C@@H]3OC1CC(N(C)C)C(O)C(C)O1 (some centres not stated)
dose: 0.78 mg/kg/injection, schedule: Q01DX009 (ip), vehicle: water
  T/C: 152 % of control
dose: 1.56 mg/kg/injection, schedule: Q01DX009 (ip), vehicle: water
  T/C: 159 % of control and 161 % of control
dose: 2.35 mg/kg/injection, schedule: Q04DX003 (ip), vehicle: water
  T/C: 107 % of control
dose: 3.13 mg/kg/injection, schedule: Q01DX009 (ip), vehicle: water
  T/C: 165 % of control and 172 % of control
dose: 6.25 mg/kg/injection, schedule: Q01DX009 (ip), vehicle: water
  T/C: 198 % of control and 209 % of control
dose: 9.4 mg/kg/injection, schedule: Q04DX003 (ip), vehicle: water
  T/C: 111 % of control
dose: 75.0 mg/kg/injection, schedule: Q04DX003 (ip), vehicle: water
  T/C: 108 % of control

## CC(=O)N1CCC(/C(C)=N/O)CC1
[1]
  T/C: 107 % of control
[2]
  T/C: 101 % of control
[3]
  T/C: 106 % of control

## Cc1nc(C)c(Cl)c(Cc2ncnc3ccccc23)n1
[4]
  T/C: 106 % of control
[5]
  T/C: 96 % of control
[6]
  T/C: 102 % of control

## CN1CCc2c(n(C)c3ccccc23)C1=O
dose: 25.0 mg/kg/injection, schedule: Q04DX002 (ip), vehicle: saline with Tween-80
  T/C: 102 % of control
dose: 50.0 mg/kg/injection, schedule: Q04DX002 (ip), vehicle: saline with Tween-80
  T/C: 98 % of control
dose: 100.0 mg/kg/injection, schedule: Q04DX002 (ip), vehicle: saline with Tween-80
  T/C: 106 % of control
dose: 200.0 mg/kg/injection, schedule: Q04DX002 (ip), vehicle: saline with Tween-80
  T/C: 101 % of control
dose: 400.0 mg/kg/injection, schedule: Q04DX002 (ip), vehicle: saline with Tween-80
  T/C: 99 % of control

## CCC(CN1N=C(c2ccc(Cl)cc2)CCC1=O)C(=O)CCC(=O)O (configuration not stated)
[7]
  T/C: 104 % of control
[8]
  T/C: 105 % of control
[9]
  T/C: 113 % of control

## O=C(OCC(Cl)(Cl)Cl)N1CCCCC1
[10]
  T/C: 98 % of control
[11]
  T/C: 92 % of control
[12]
  T/C: 102 % of control

## COc1cccc(C2c3cc4c(cc3OC(O)C2C)OCO4)c1O (configuration not stated)
dose: 60.0 mg/kg/injection, schedule: Q01DX005 (ip), vehicle: Klucel (hydroxypropylcellulose) (HPC)
  T/C: 99 % of control
dose: 120.0 mg/kg/injection, schedule: Q01DX005 (ip), vehicle: Klucel (hydroxypropylcellulose) (HPC)
  T/C: 99 % of control
dose: 240.0 mg/kg/injection, schedule: Q01DX005 (ip), vehicle: Klucel (hydroxypropylcellulose) (HPC)
  T/C: 100 % of control

## CC(/C=C/c1ccccc1)=Nc1ccc(Cl)cc1
[10]
  T/C: 100 % of control and 107 % of control
[11]
  T/C: 100 % of control and 101 % of control and 107 % of control
[12]
  T/C: 100 % of control and 101 % of control
[13]
  T/C: 98 % of control

## O=C1CN(Cc2ccc(Cl)cc2)CC(=O)N2CCCN12
dose: 12.5 mg/kg/injection, schedule: Q01DX005 (ip), vehicle: saline with Tween-80
  T/C: 96 % of control
[4]
  T/C: 100 % of control
[5]
  T/C: 100 % of control

## N/C(Cc1noc2ccccc12)=N\O
[14]
  T/C: 109 % of control
[15]
  T/C: 107 % of control

## O=P1(c2ccccc2)C=C(c2ccccc2)NC(c2ccccc2)=C1
[5]
  T/C: 93 % of control
[16]
  T/C: 90 % of control

## O=C1C=C/C(=C\c2cccc(Cl)c2)O1
dose: 100.0 mg/kg/injection, schedule: Q01DX002 (ip), vehicle: Klucel (hydroxypropylcellulose) (HPC)
  T/C: 103 % of control
dose: 200.0 mg/kg/injection, schedule: Q01DX002 (ip), vehicle: Klucel (hydroxypropylcellulose) (HPC)
  T/C: 107 % of control
dose: 400.0 mg/kg/injection, schedule: Q01DX002 (ip), vehicle: Klucel (hydroxypropylcellulose) (HPC)
  T/C: 103 % of control

## Cc1[nH]c(=O)[nH]c(=O)c1/C=C/C(=O)NC(CO)CS(C)=O (configuration not stated)
dose: 0.07 mg/kg/injection, schedule: Q01DX009 (ip), vehicle: water
  T/C: 108 % of control
dose: 0.15 mg/kg/injection, schedule: Q01DX009 (ip), vehicle: water
  T/C: 106 % of control and 100 % of control
dose: 0.3 mg/kg/injection, schedule: Q01DX009 (ip), vehicle: water
  T/C: 92 % of control and 110 % of control
dose: 0.6 mg/kg/injection, schedule: Q01DX009 (ip), vehicle: water
  T/C: 98 % of control and 110 % of control
dose: 1.2 mg/kg/injection, schedule: Q01DX009 (ip), vehicle: water
  T/C: 112 % of control
dose: 2.0 mg/kg/injection, schedule: Q01DX009 (ip), vehicle: water
  T/C: 118 % of control
dose: 4.0 mg/kg/injection, schedule: Q01DX009 (ip), vehicle: water
  T/C: 120 % of control
dose: 16.0 mg/kg/injection, schedule: Q01DX009 (ip), vehicle: water
  T/C: 111 % of control
dose: 40.0 mg/kg/injection, schedule: Q01DX009 (ip), vehicle: water
  T/C: 102 % of control
dose: 64.0 mg/kg/injection, schedule: Q01DX009 (ip), vehicle: water
  T/C: 116 % of control and 123 % of control
dose: 128.0 mg/kg/injection, schedule: Q01DX009 (ip), vehicle: water
  T/C: 124 % of control

## CCOC1CC2C(=O)C(CC)=C(OC)CC2(CC)CO1 (configuration not stated)
dose: 60.0 mg/kg/injection, schedule: Q01DX005 (ip), vehicle: saline with Tween-80
  T/C: 98 % of control
dose: 120.0 mg/kg/injection, schedule: Q01DX005 (ip), vehicle: saline with Tween-80
  T/C: 99 % of control

## Cc1nc2c3c4c(sc3nc(C)n2n1)CCCC4
[7]
  T/C: 105 % of control
[8]
  T/C: 100 % of control
[9]
  T/C: 98 % of control

## COc1ccc2c(c1O)CN1CCc3cc4c(cc3C1C2)OCO4 (configuration not stated)
[5]
  T/C: 104 % of control
[6]
  T/C: 110 % of control
[16]
  T/C: 115 % of control

## Cc1c2oc3c(C)ccc(C(=O)NC(C(=O)NC(C(=O)NCCO)C(C)C)C(C)O)c3nc-2c(C(=O)NC(C(=O)NC(C(=O)NCCO)C(C)C)C(C)O)c(N)c1=O (configuration not stated)
dose: 0.05 mg/kg/injection, schedule: Q01DX009 (ip), vehicle: water
  T/C: 99 % of control
dose: 0.1 mg/kg/injection, schedule: Q01DX009 (ip), vehicle: water
  T/C: 100 % of control
dose: 0.2 mg/kg/injection, schedule: Q01DX009 (ip), vehicle: water
  T/C: 100 % of control
dose: 0.4 mg/kg/injection, schedule: Q01DX009 (ip), vehicle: water
  T/C: 97 % of control
dose: 0.8 mg/kg/injection, schedule: Q01DX009 (ip), vehicle: water
  T/C: 98 % of control
dose: 1.6 mg/kg/injection, schedule: Q01DX009 (ip), vehicle: water
  T/C: 88 % of control and 94 % of control
dose: 3.2 mg/kg/injection, schedule: Q01DX009 (ip), vehicle: water
  T/C: 92 % of control
dose: 6.4 mg/kg/injection, schedule: Q01DX009 (ip), vehicle: water
  T/C: 110 % of control
dose: 12.8 mg/kg/injection, schedule: Q01DX009 (ip), vehicle: water
  T/C: 97 % of control

## CN(C)C(=S)SCN1CCCCC1
dose: 6.25 mg/kg/injection, schedule: Q01DX009 (ip), vehicle: saline with Tween-80
  T/C: 100 % of control
dose: 12.5 mg/kg/injection, schedule: Q01DX009 (ip), vehicle: saline with Tween-80
  T/C: 101 % of control
[10]
  T/C: 100 % of control
[11]
  T/C: 95 % of control

## Nc1nc2nc(-c3ccccc3)nc(N)c2nc1C(=O)N/N=C/c1ccccc1
[12]
  T/C: 96 % of control
[13]
  T/C: 95 % of control
dose: 400.0 mg/kg/injection, schedule: Q01DX009 (ip), vehicle: saline with Tween-80
  T/C: 100 % of control

## O=CNNC(=O)c1cnccn1
dose: 89.0 mg/kg/injection, schedule: Q01DX009 (ip), vehicle: water
  T/C: 109 % of control
dose: 133.0 mg/kg/injection, schedule: Q01DX009 (ip), vehicle: water
  T/C: 100 % of control
dose: 200.0 mg/kg/injection, schedule: Q01DX009 (ip), vehicle: water
  T/C: 118 % of control

## c1c[nH]c(C2Nc3ccccc3CO2)c1 (configuration not stated)
[7]
  T/C: 115 % of control
[8]
  T/C: 107 % of control
[9]
  T/C: 112 % of control

## Cc1[nH]oc(=O)c1C(=O)O
[14]
  T/C: 100 % of control
[15]
  T/C: 99 % of control
dose: 200.0 mg/kg/injection, schedule: Q01DX009 (ip), vehicle: saline
  T/C: 89 % of control

## [CH3][Sn]1([CH3])[O]c2ccccc2C=NCCN=Cc2ccccc2[O]1
dose: 12.5 mg/kg/injection, schedule: Q01DX009 (ip), vehicle: saline
  T/C: 100 % of control and 91 % of control
dose: 25.0 mg/kg/injection, schedule: Q01DX009 (ip), vehicle: saline
  T/C: 106 % of control and 86 % of control
[14]
  T/C: 91 % of control
[15]
  T/C: 107 % of control

## CCCC(C(=O)OC)C(=O)C(C)c1nc2n(c1O)C(=N)N=N2 (configuration not stated)
[1]
  T/C: 97 % of control
[2]
  T/C: 97 % of control
[3]
  T/C: 98 % of control

Reference: PubChem BioAssay AID330 (DTP/NCI, 2004)
